Patent US20250228772A1, “DRUG DELIVERY SYSTEM COMPRISING A REFLUX INHIBITOR FOR THE APPLICATION TO ESOPHAGEAL MUCOUS MEMBRANES” (EsoCap AG, priority 2022, published 2025)

Key:
[1] = UV/Vis spectroscopy of film samples against a reference sample; type: physicochemical; details: PVA 18-88/glycerol film, FSG medium pH 1.2, spectrum compared with a reference sample
Protocol: Further, the film was analyzed for the content of Baclofen. To this end, 6 circular samples with a diameter of 1.9 cm (2.84 cm^2) were cut at random positions of the film and analyzed with a UV/Vis spectroscopy in FSG medium, pH 1.2. The absorption spectrum is shown in FIG. 10 in comparison to a reference sample comprising Baclofen solved in FSG medium, pH 1.2.

[2] = test system: reflux episodes and transient lower esophageal sphincter relaxations; details: meta-analysis of nine clinical studies; cited from earlier work
[3] = test system: transient lower esophageal sphincter relaxations; details: after systemic administration (Lidums 2000); cited from earlier work
[4] = oral administration, clinical use, 15 to 75 mg per day; cited from earlier work

Structure (SMILES): NCC(CC(=O)O)c1ccc(Cl)cc1 (stereo not drawn) [Baclofen, 4-Amino-3-(4-chlorphenyl) butyric acid]
- stability of Baclofen in the polymer film [1]: can be stably prepared in a film
- incidence of transient lower esophageal sphincter relaxations [2]: decreased
- length of reflux episodes [2]: decreased
- number of reflux episodes [2]: decreased
- transient lower esophageal sphincter relaxations [3]: control transient lower esophageal sphincter relaxations
- tolerability / side effects [4]: poor tolerability due to severe side effects
